The text below walks through data of ChEMBL document CHEMBL1201862, “PubChem BioAssay data set” (2004).

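1) Cells in 96-well plates. 2) Compound, 48 h, 5 concentrations. 3) Linear interpolation between surrounding doses. 4) Unreached endpoint = highest concentration. GI50 marks 50% less growth.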 Calls of active or inactive are those of the source. No stated cut-off is given here; in the data, active = GI50 up to about 1.1 µM and inactive = higher.

Assay in all cases: inhibition of tumour cell growth, NCI panel, 48 h
In assay [1] the test system is A549.
For assay [2], the system named is SK-OV-3.
Assay [3] has as its system MCF7.
The test system of assay [4] is UO-31.
Assay [5] has as its system SNB-19.
Assay [6] deals with CAKI-1.
For assay [7], the system named is MDA-N.
The subject of assay [8] is CCRF-CEM.
For assay [9], the system named is NCI/ADR-RES.
The subject of assay [10] is OVCAR-3.
The subject of assay [11] is PC-3.
The subject of assay [12] is SK-MEL-28.
For assay [13], the system named is TK-10.
The subject of assay [14] is NCI-H460.
Assay [15] relates to SR.
The subject of assay [16] is MDA-MB-435.
In assay [17] the test system is NCI-H226.
Assay [18] deals with HL-60.
The test system of assay [19] is T47D.
In assay [20] the test system is RPMI-8226.

As for `N/C(=N\N/C=C1\C=Nc2cc(C(F)(F)F)ccc2C1=O)NO`, the GI50 in [1], in assay [2], in assay [3], in assay [4], in assay [5] and in assay [6] was > 10 µM (inactive) each time. Further, the GI50 in assay [7], in assay [8], in assay [9], in assay [10], in assay [11] and in assay [12] was > 10 µM (inactive) throughout. Further, the GI50 in [13], in assay [14], in assay [15], in [16], in assay [17] and in assay [18] was > 10 µM (inactive) each time. For the same molecule, the GI50 in assay [19] and in [20] was > 10 µM (inactive) each time.
For `COC(=O)C1=C(O)C(C(=O)OC)[C@]2(O)[C@H](C(=O)OC)[C@H]1C[C@@H](c1ccc(OC)c(OC)c1)[C@H]2C(=O)OC` (stereo not given in full), the GI50 in assay [1] is 11.6 µM (inactive); in assay [2] it was 17.6 µM (inactive); in assay [3], 17.3 µM (inactive); in assay [4] it was 24.5 µM (inactive); in [5] it was 14.6 µM (inactive); in assay [6], 25.8 µM (inactive). The GI50 in [7] is 7.13 µM (inactive); in [8], 0.129 µM (active); in [9], 15.5 µM (inactive); in [10] it was 16.5 µM (inactive); in assay [11] it was 25.4 µM (inactive); in [12] it was 19.2 µM (inactive). Besides, the GI50 in assay [13] is 24.9 µM (inactive); in assay [14] it was 14.7 µM (inactive); in assay [15], 14 µM (inactive); in assay [16], 11.3 µM (inactive); in [17], 4.79 µM (inactive); in assay [18] it was 7.83 µM (inactive). Besides, the GI50 in [19] is 15.9 µM (inactive); in assay [20], 3.27 µM (inactive).
As to `O=C1CCc2c(sc3ncnc(Nc4cccc(Br)c4)c23)C1`, the GI50 was 3.11 µM (inactive) in assay [1]; 7.52 µM (inactive) in assay [2]; 3.93 µM (inactive) in [3]; 1.99 µM (inactive) in [4]; 4.12 µM (inactive) in assay [5]; 2.09 µM (inactive) in assay [6]. The GI50 in assay [7] was 2.65 µM (inactive); in assay [8] it was 2.08 µM (inactive); in assay [9], 2.94 µM (inactive); in [10], 2.51 µM (inactive); in assay [11], 3.07 µM (inactive); in assay [12] it was 24.2 µM (inactive). Moreover, the GI50 was 4.06 µM (inactive) in assay [13]; 3.99 µM (inactive) in [14]; 2.33 µM (inactive) in [15]; 1.94 µM (inactive) in assay [16]; 4.06 µM (inactive) in [17]; 4.32 µM (inactive) in assay [18]. Besides, the GI50 in assay [19] is 2.4 µM (inactive); in assay [20], 2.58 µM (inactive).
For the molecule `Cc1ccc(S(=O)(=O)N/N=C2\CCCCCCCCCCC2CN(C)C)cc1` (stereo not given), the GI50 in assay [1] is 19.3 µM (inactive); in [2], 20 µM (inactive); in [3], 17 µM (inactive); in assay [4], 9.04 µM (inactive); in [5] it was 15.5 µM (inactive); in [6] it was 26.7 µM (inactive). Also, the GI50 is 18.5 µM (inactive) in assay [7]; 15.7 µM (inactive) in assay [8]; 14.9 µM (inactive) in assay [9]; 17.5 µM (inactive) in [10]; 15.3 µM (inactive) in [11]; 14.8 µM (inactive) in [12]. Further, the GI50 in assay [13] was 14.4 µM (inactive); in assay [14], 12.4 µM (inactive); in assay [15], 16.9 µM (inactive); in assay [16], 14.7 µM (inactive); in assay [17], 15.7 µM (inactive); in assay [18], 19.4 µM (inactive). In addition, the GI50 in [19] is 13.4 µM (inactive); in assay [20] it was 38.7 µM (inactive).
For `C=CCN1C(=O)CNC1=S`, the GI50 in assay [1], in [2], in assay [3], in assay [4], in assay [5] and in [6] was > 100 µM (inactive) throughout. Besides, the GI50 is > 100 µM (inactive) in assay [7]; 5.35 µM (inactive) in assay [8]; > 100 µM (inactive) in [9]; > 100 µM (inactive) in assay [10]; > 100 µM (inactive) in assay [11]; > 100 µM (inactive) in assay [12]. The GI50 in assay [13] was > 100 µM (inactive); in [14], > 100 µM (inactive); in [15], > 100 µM (inactive); in assay [16] it was > 100 µM (inactive); in assay [17], > 100 µM (inactive); in [18], 23.7 µM (inactive). Moreover, the GI50 in assay [19] and in [20] was > 100 µM (inactive) each time.
`Cn1cnc([N+](=O)[O-])c1[Se]c1nc(N)nc2c1ncn2C1OC(CO)C(O)C1O` (stereo not given): the GI50 in assay [1], in assay [2], in assay [3], in assay [4], in assay [5] and in assay [6] was > 100 µM (inactive) in each case. The GI50 in assay [7], in assay [8], in assay [9], in assay [10], in [11] and in assay [12] was > 100 µM (inactive) throughout. In addition, the GI50 in [13], in [14], in [15], in [16], in [17] and in assay [18] was > 100 µM (inactive) each time. The GI50 in [19] and in assay [20] was > 100 µM (inactive) in each case.
As for `Cc1[nH]c2ncn(Nc3ccccc3)c(=N)c2c1Cc1ccccc1`, the GI50 in [1] is 1.48 µM (inactive); in assay [2], > 100 µM (inactive); in [3] it was 5.45 µM (inactive); in [4] it was > 100 µM (inactive); in [5], > 51.3 µM (inactive); in assay [6] it was 24.4 µM (inactive). The GI50 was 0.191 µM (active) in assay [7]; 37.3 µM (inactive) in assay [8]; 29.6 µM (inactive) in assay [9]; 30.1 µM (inactive) in [10]; 23.4 µM (inactive) in assay [11]; > 75.9 µM (inactive) in [13]. Also, the GI50 in assay [14] is 14.3 µM (inactive); in assay [15], 21.2 µM (inactive); in assay [16], 0.491 µM (active); in assay [17] it was > 55 µM (inactive); in assay [18], 1.73 µM (inactive); in assay [19] it was 1.07 µM (active). For the same molecule, the GI50 in assay [20] is > 60.7 µM (inactive).
As for `Nc1nc2c(c(=O)[nH]1)N=C(COP(=O)(O)OP(=O)(O)O)CN2`, the GI50 in assay [1], in assay [2], in assay [3], in [4], in assay [5] and in assay [6] was > 100 µM (inactive) in each case. Also, the GI50 in assay [7], in assay [8], in assay [9], in [11], in assay [12] and in assay [13] was > 100 µM (inactive) throughout. For the same molecule, the GI50 in assay [15], in assay [16], in assay [17], in assay [18], in assay [19] and in assay [20] was > 100 µM (inactive) in each case.
For `FC(F)(F)c1cc(N(C2c3ccccc3C=Cc3ccccc32)P(Cl)Cl)cc(C(F)(F)F)c1`, the GI50 is 18.3 µM (inactive) in [1]; 25.4 µM (inactive) in assay [2]; 20.7 µM (inactive) in assay [3]; 17.6 µM (inactive) in assay [4]; 21.8 µM (inactive) in assay [5]; 21.9 µM (inactive) in assay [6]. Further, the GI50 in [7] was 22 µM (inactive); in assay [8], 24 µM (inactive); in [9] it was 3.62 µM (inactive); in [10], 16.4 µM (inactive); in assay [11] it was 22.7 µM (inactive); in assay [12], 25.6 µM (inactive). For the same molecule, the GI50 in assay [13] is 33 µM (inactive); in [15], 16 µM (inactive); in assay [16], 21.8 µM (inactive); in assay [17] it was 19.1 µM (inactive); in assay [18], 20 µM (inactive); in assay [19], 17.9 µM (inactive). Also, the GI50 in assay [20] was 18 µM (inactive).
Turning to `CN(Cc1cnc2nc(N)nc(N)c2n1)c1ccc(C(=O)NCCS(=O)(=O)O)cc1`, the GI50 in assay [1], in assay [2], in assay [3], in [4], in assay [5] and in assay [6] was > 100 µM (inactive) in each case. For the same molecule, the GI50 in [7], in [9], in assay [10], in [11], in assay [12] and in assay [13] was > 100 µM (inactive) throughout. Besides, the GI50 was > 100 µM (inactive) in assay [14]; 67.6 µM (inactive) in assay [15]; > 100 µM (inactive) in assay [16]; > 100 µM (inactive) in [17]; > 100 µM (inactive) in [18]; > 100 µM (inactive) in [19]. The GI50 in assay [20] was > 100 µM (inactive).
